Data published in patent EP1016405A2, “Arylating medicaments” (Radopath Pharmaceuticals International Limited, priority 1993, dated 1994).
Several values for one entry are separate records, joined by “and”; a condition that tells them apart may be missing. Identical values can stand only once. Like-named read-outs stand apart in the source and are kept apart here.

What was measured:
HIV-1RF = experiment: Acute Infection Assay, HIV core antigen ELISA in C8166 cells; assay type: cell-based, human immunodeficiency virus
in vitro = conditions: CC50 (Toxicity)
HIV-1IIIB = experiment: Acute infection assay against HIV-1IIIB; assay type: cell-based, human immunodeficiency virus; conditions: for IC50: read-out: IC50 (Antiviral)
[1] = test system: MAC15A (murine adenocarcinoma colon); experiment: Anti-tumour activity against MAC15A ascites tumour, survival T/C%; assay type: in vivo, mice; conditions: for response vs control in vivo at 100 mg/kg: Mus musculus, MAC15A, read-out: T/C%; for T/C%: mouse, in vivo
[2] = test system: M5076 reticulum cell sarcoma; experiment: Anti-tumour activity against M5076 reticulum cell sarcoma; assay type: in vivo, murine; conditions: statement in words
Method: The purpose of these studies was to evaluate the anti-tumour properties of a group of compounds with structural similarities that may act as arylating agents. Their in vivo anti-tumour responses were assessed against two ascitic tumours, the MAC15A murine colon adenocarcinoma and the P388 murine leukaemia and various solid tumour models.
The MAC15A ascites tumour cells were transplanted into male NMR1 mice by ip inoculation at a cell density of 1 X 10^5 cells in 200µl buffer (Table 1). The P388 were transplanted ip into male BDF1 mice at cell density of 1 X 10^6 cells in 200µl buffer (Table 2). The solid tumour models included the MAC13 and MAC16 murine colon adenocarcinomas, the B16 F1 murine melanoma and the M5076 reticulum cell sarcoma.
Treatment commenced 3 days after ip transplant or, in the case of solid tumours such as MAC13 and MAC16, treatment commenced when average tumour volumes reached 40mm^3.
The animals were sacrificed after 12 days or when tumours ulcerated, tumour volume exceeded 1000mm^3 or loss of body weight exceeded 50%.
Except where otherwise stated, the compounds used were dissolved in DMSO and diluted in sterile distilled water, at appropriate concentrations before administration in a solvent volume of 200 µl. Anti-tumour responses were obtained by comparing the median survival times or tumour growth inhibition against solvent controls.

B16F1-murine melanoma = conditions: 12 days after sc transplant, corn oil
in vivo = conditions: mouse, ip
[3] = Human immunodeficiency virus 1, C8166, read-out: IC50 (Antiviral)
[4] = Human immunodeficiency virus 1, Table 11.3, Against HIV-IIIB / HIV-1IIIB, single assays, unit inferred
[5] = Human immunodeficiency virus 1, C8166, Table 11.4, Against HIV-1RF, single assays, unit inferred, read-out: IC50 (Antiviral)
[6] = Human immunodeficiency virus 1, IIIB

In the case of `O=[N+]([O-])c1c(Cl)cc(Cl)c(Cl)c1Cl` [Compound E13, 2,3,4,6-tetrachloronitrobenzene], the IC50 (HIV-1RF; [3]) is reported as > 200 µM and the CC50 (in vitro) is reported as 80 µM.

For `O=[N+]([O-])c1ccc(Cl)c(Cl)c1` [Compound E7, 3,4-dichloronitrobenzene], the IC50 (HIV-1RF; [3]) was > 200 µM and the CC50 (uninfected cells) was > 200 µM.

For `O=C(O)c1ccc([N+](=O)[O-])cc1Cl` [Compound C-10, 2-chloro-4-nitrobenzoic acid], the IC50 (HIV-1IIIB; [4]) was > 200 µM and the CC50 (in vitro) was > 200 µM.

With `O=C(O)c1ccc(Cl)c([N+](=O)[O-])c1` [Compound C9, 4-chloro-3-nitrobenzoic acid] the IC50 (HIV-1IIIB; [4]) was > 200 µM and the CC50 (in vitro) was > 200 µM.

In the case of `O=[N+]([O-])c1ccc(Cl)cc1Cl` [Compound E5, 2,4-dichloronitrobenzene], the “SI (Selectivity Index)” value (HIV-1RF) is reported as 1, the IC50 (HIV-1RF; [3]) is reported as 180 µM and the CC50 (uninfected cells) is reported as > 200 µM.

In the case of `O=[N+]([O-])c1cc(S(=O)(=O)O)ccc1Cl` [Compound S4, 4-chloro-3-nitrobenzenesulfonic acid], the response vs control in vivo at 100 mg/kg ([1]; ip) is reported as 140%, the IC50 (HIV-1RF; [5]) is reported as > 200 µM and the CC50 (in vitro) is reported as > 200 µM.

“2-glutathionyl-3,5-dinitrobenzenesulfonic acid” showed a T/C% ([1]; ip) of 242%.

For `COC(=O)c1cc([N+](=O)[O-])c(Cl)c([N+](=O)[O-])c1Cl` [Compound C3, 2,4-dichloro-3,5-dinitrobenzoic acid methyl ester], the antitumour activity [2] was “without antitumour activity”, the IC50 (HIV-1IIIB; [6]) was 0.3 µM and the CC50 (in vitro) was 7 µM.

For `O=[N+]([O-])c1ccc(S(=O)(=O)O)c([N+](=O)[O-])c1` [Compound S8, 2,4-dinitrobenzenesulfonic acid], the T/C% ([1]; ip) was 171%, the IC50 (HIV-1RF; read-out: IC50 (Antiviral)) was 40 µM and 30 µM and the CC50 (in vitro) was 100 µM.

Molecule `Cc1ccc(S(=O)(=O)O)cc1[N+](=O)[O-]` [3-nitro-4-methylbenzenesulfonic acid] has a response vs control in vivo at 100 mg/kg ([1]; ip) of 229%.

In the case of `O=C(O)c1ccc(Cl)c(Cl)c1` [Compound C-11, 3,4-dichlorobenzoic acid], the IC50 (HIV-1IIIB; [4]) is reported as > 200 µM and the CC50 (in vitro) is reported as > 200 µM.

In the case of `O=[N+]([O-])c1cc(Cl)ccc1Cl` [Compound E6, 2,5-dichloronitrobenzene], the “SI (Selectivity Index)” value (HIV-1RF) is reported as 2, the IC50 (HIV-1RF; [3]) is reported as 110 µM and the CC50 (in vitro) is reported as > 200 µM.

`COC(=O)c1cc([N+](=O)[O-])cc([N+](=O)[O-])c1Cl` [Compound C8, 2-chloro-3,5-dinitrobenzoic acid methyl ester] gave an IC50 (HIV-1IIIB; [6]) of 10 µM and a CC50 (in vitro) of 60 µM.

Work on `COc1ccc(Cl)c([N+](=O)[O-])c1` [4-chloro-3-nitroanisole] yielded a response vs control in vivo at 100 mg/kg ([1]; ip) of 100%.

For `O=[N+]([O-])c1cc(Cl)cc(Cl)c1[N+](=O)[O-]` [Compound E9, 1,5-dichloro-2,3-dinitrobenzene], the response vs control in vivo at 100 mg/kg ([1]; ip) was 386%.

`O=C(O)c1ccc([N+](=O)[O-])cc1[N+](=O)[O-]` [2,4-dinitrobenzoic acid] showed a T/C% ([1]; ip) of 100%.

In the case of `O=[N+]([O-])c1cc(Cl)c(Cl)cc1[N+](=O)[O-]` [Compound E3, 1,2-dichloro-4,5-dinitrobenzene], the T/C% ([1]; ip) is reported as 171%, the “SI (Selectivity Index)” value (HIV-1RF) is reported as 1.5 and the IC50 (HIV-1RF; read-out: IC50 (Antiviral)) is reported as 4 µM. It also gave a CC50 (in vitro) of 7 µM.

For `O=[N+]([O-])c1cc([N+](=O)[O-])c(Cl)c(S(=O)(=O)O)c1` [Compound S2, 2-chloro-3,5-dinitrobenzenesulfonic acid], the T/C% ([1]; ip) was 137%, the TI (HIV-1RF) was >8 and the IC50 (HIV-1RF; read-out: IC50) was 25 µM. The CD50 (uninfected cells) was >200µm.

`Nc1c([N+](=O)[O-])cccc1[N+](=O)[O-]` [2,6-dinitroaniline] showed a T/C% ([1]; ip) of 214%.

For `O=[N+]([O-])c1cccc(Cl)c1Cl` [Compound E4, 2,3-dichloronitrobenzene], the “SI (Selectivity Index)” value (HIV-1RF) was 1.5, the IC50 (HIV-1RF; [3]) was 80 µM and the CC50 (uninfected cells) was > 200 µM.

For `Nc1ccc([N+](=O)[O-])cc1[N+](=O)[O-]` [2,4-dinitroaniline], the T/C% ([1]; ip) was 100%.

For `O=[N+]([O-])c1cc(Cl)c(Cl)cc1Cl` [Compound E11, 1,2,4-trichloro-5-nitrobenzene], the IC50 (HIV-1RF; [3]) was > 200 µM and the CC50 (in vitro) was > 200 µM.

With `O=[N+]([O-])c1cc(Cl)cc(Cl)c1` [Compound E8, 3,5-dichloronitrobenzene] the “SI (Selectivity Index)” value (HIV-1RF) was 1.5, the IC50 (HIV-1RF; [3]) was 120 µM and the CC50 (uninfected cells) was > 200 µM.

With `O=C(O)c1cc([N+](=O)[O-])c(Cl)c([N+](=O)[O-])c1` [Compound C4, 4-chloro-3,5-dinitrobenzoic acid] the TI (HIV-1RF) was 2.33, the “SI (Selectivity Index)” value (HIV-1IIIB) was 2.5 and 2.3 and the “% Tumour Weight Inhibition” value (B16F1-murine melanoma; 50 mg/kg ip, days 1,5) was 10%. For the same molecule, the “% Tumour Weight Inhibition” value (B16F1-murine melanoma; 75 mg/kg ip, days 1,5) was 41%, the “% Tumour Weight Inhibition” value (B16F1-murine melanoma; 100 mg/kg ip, days 1,5) was 39% and the CD50 (uninfected cells) was 70µm. For the same molecule, the CC50 (in vitro) was 100 µM.

With `O=[N+]([O-])c1ccc(Cl)c(Cl)c1Cl` [Compound E10, 1,2,3-trichloro-4-nitrobenzene] the IC50 (HIV-1RF; [3]) was > 200 µM and the CC50 (in vitro) was 90 µM.

`Nc1ccc([N+](=O)[O-])cc1Cl` [2-chloro-4-nitroaniline] showed a response vs control in vivo at 100 mg/kg ([1]; ip) of 171%.

With `Nc1c([N+](=O)[O-])cc(Cl)cc1[N+](=O)[O-]` [4-chloro-2,6-dinitroaniline] the T/C% ([1]; ip) was 87%.

For `O=S(=O)(O)c1cc(Cl)ccc1Cl` [Compound S7, 2,5-dichlorobenzenesulfonic acid], the response vs control in vivo at 100 mg/kg ([1]; ip) was 212%, the IC50 (HIV-1RF; [5]) was > 200 µM and the CC50 (in vitro) was > 200 µM.

With `O=[N+]([O-])c1c(Cl)c(Cl)c(Cl)c(Cl)c1Cl` [Compound E14, pentachloronitrobenzene] the IC50 (HIV-1RF; [3]) was > 200 µM and the CC50 (in vitro) was > 200 µM.

With `NC(=O)c1cc([N+](=O)[O-])c(Cl)c([N+](=O)[O-])c1` [Compound C5, 4-chloro-3,5-dinitrobenzamide] the “SI (Selectivity Index)” value (HIV-1IIIB) was 10, the “% Tumour Weight Inhibition” value (B16F1-murine melanoma; 1.25 mg/kg ip, days 1,3,5) was 27% and the “% Tumour Weight Inhibition” value (B16F1-murine melanoma; 2.5 mg/kg ip, days 1,3,5) was 18%. The “% Tumour Weight Inhibition” value (B16F1-murine melanoma; 5 mg/kg ip, days 1,3,5) was 18%, the MTD at 12 days (in vivo) was 5 mg/kg and the CC50 (in vitro) was 50 µM.

4-glutathionyl-3,5-dinitrobenzene gave a T/C% ([1]; ip) of 113%.

For `O=S(=O)(O)c1ccc(Cl)cc1` [Compound S5, 4-chlorobenzenesulfonic acid], the response vs control in vivo at 100 mg/kg ([1]; median survival, test vs solvent control, 100 mg kg^-1 ip per day, schedule days 1,2,3,4,5) was 443%, the IC50 (HIV-1RF; [5]) was > 200 µM and the CC50 (in vitro) was > 200 µM.

In the case of `COC(=O)c1cc([N+](=O)[O-])c(Cl)c([N+](=O)[O-])c1` [Compound C6, 4-chloro-3,5-dinitrobenzoic acid methyl ester], the IC50 (HIV-1IIIB; [6]) is reported as 5 µM, the MTD (in vivo) is reported as 2.5 mg/kg and the CC50 (in vitro) is reported as 60 µM.

`NC(=O)c1cc([N+](=O)[O-])c(N)c([N+](=O)[O-])c1` [4-amino-3,5-dinitrobenzamide] gave a response vs control in vivo at 100 mg/kg ([1]; ip, 24 h) of 100%.

For `Nc1c([N+](=O)[O-])cc(S(=O)(=O)O)cc1[N+](=O)[O-]` [Compound S3, 4-amino-3,5-dinitrobenzenesulfonic acid], the T/C% ([1]; ip) was 286%, the TI (HIV-1RF) was 5 and the IC50 (HIV-1RF; read-out: IC50) was 20 µM. For the same molecule, the CD50 (uninfected cells) was 100µm.

For `O=[N+]([O-])c1ccc(Cl)c([N+](=O)[O-])c1` [Compound E2, 1-chloro-2,4-dinitrobenzene], the response vs control in vivo at 100 mg/kg ([1]; ip) was 188%, the “SI (Selectivity Index)” value (HIV-1RF) was 3 and the IC50 (HIV-1RF; [3]) was 4 µM. The CC50 (in vitro) was 13 µM.

For `O=C(O)c1cc([N+](=O)[O-])cc([N+](=O)[O-])c1Cl` [Compound C7, 2-chloro-3,5-dinitrobenzoic acid], the “SI (Selectivity Index)” value (HIV-1IIIB) was 6 and >10, the IC50 (HIV-1IIIB) was 23 µM and the CC50 (uninfected cells) was > 200 µM. The CC50 (in vitro) was 150 µM.

For `O=C(O)c1cc([N+](=O)[O-])cc([N+](=O)[O-])c1` [3,5-dinitrobenzoic acid], the T/C% ([1]; ip) was 100%.

In the case of `O=C(O)c1cc(Cl)ccc1Cl` [Compound C-12, 2,5-dichlorobenzoic acid], the response vs control in vivo at 100 mg/kg ([1]; ip) is reported as 171% and the CC50 (in vitro) is reported as > 200 µM.

With `Nc1c(Cl)cc([N+](=O)[O-])cc1[N+](=O)[O-]` [6-chloro-2,4-dinitroaniline] the T/C% ([1]; ip) was 87%.

For `O=[N+]([O-])c1ccc(Cl)cc1[N+](=O)[O-]` [Compound E1, 1-chloro-3,4-dinitrobenzene], the T/C% ([1]; ip) was 200%, the “SI (Selectivity Index)” value (HIV-1RF) was 2.5 and the IC50 (HIV-1RF; read-out: IC50 (Antiviral)) was 4 µM. The CC50 (in vitro) was 10 µM.
